≈ marks a conversion by molar mass, not a printed value. Entries after “also recorded” stand apart in the source; their conditions may differ.
Key:
[1] = Mouse oral PK, mannoside concentration in urine; format: in vivo; settings: mice, 50 mg/kg oral
Procedure: Compounds ZFH-4269 (FIG. 6A), ZFH-5254 (FIG. 6B), ZFH5240 (FIG. 6C), and a Prodrug were dosed at 50 mg/kg and plasma and urine samples were taken at 1, 3, 6 and 8 hours after dosing. […] Taken together, the high oral bioavailability and in vivo efficacy observed in animal studies support mannosides as promising therapeutic candidates for UTI treatment/prevention.
For intraperitoneal dosing, 50 μl of a 2 mg/ml (5 mg/kg) or 4 mg/ml (10 mg/kg) solution of ZFH-2056 in PBS was injected into the peritoneal cavity of the mouse. For oral dosing, 100 μl of a 20 mg/ml (100 mg/kg) solution of ZFH-2056 in 8% DMSO was inoculated with a gavage needle into the mouse stomach. Urine was collected at 30 min, 1, 2, 3, 4, 6, and 8 h post-treatment. An equal volume of 10 μM internal standard (ZFH-2050) was added to the urine. Mannosides were extracted from the urine by loading on C18 columns (100 mg, Waters), washing with 30% methanol, and eluting with 60% methanol. Vacuum-concentrated eluates were analyzed using liquid chromatography-mass spectrometry system30 with a lower heated capillary temperature of 190° C. and a gradiert as follows: Solvent B (80% acetonitrile in 0.1% formic acid) was held constant at 5% for 5 minutes, increased to 44% B by 45 minutes, and then to a 95% B by 65 minutes. SRM mode quantification was performed with collision gas energy of 30% for the following MS/MS transitions (precursor m/z/product m/z): compound ZFH-2056, 447/285; compound ZFH-2050, 390/228. Absolute quantification was achieved by comparison to a calibration curve.

UTI89 [2] = assay: Mouse model of acute UTI, bladder bacterial CFU after UTI89 infection; format: in vivo, Escherichia coli; settings: for total bacterial CFUs in the bladder: mice, 6 hpi
Procedure: The efficacy of in vivo mannoside treatment was evaluated after orally dosing animals with 50 mg/kg of mannosides ZFH-4269 (FIG. 1A), ZFH-5254 (FIG. 1B) and ZFH-5240 (FIG. 1C) or DMSO or PBS 30 min prior to infecting with UTI89. At 6 hours post-infection (hpi) the bladders were removed and total bacterial CFUs were quantitated. […] Next, analogs of 254 were evaluated in the same mouse model of urinary tract infection. Animals were orally dosed with 25 mg/kg of mannosides ZFH-4269 (FIG. 2A), 1CJ68 (FIG. 2B) and 1CJ70 (FIG. 2C) in 10% cyclodextrin or 10% cyclodextrin 30 min prior to infecting with UT189.
The efficacy of in vivo mannoside treatment was evaluated after orally dosing animals with 25 mg/kg of mannosides ZFH269, Prodrug FIM-4269, ZFH-5254, and ZFH-5240 in 10% cyclodextrin or 10% cyclodextrin 30 min prior to infecting with UTI89. At 6 hours post-infection (hpi) the bladders were removed and total bacterial CFUs were quantitated. […] Next, several different prodrugs were evaluated in the same mouse model of urinary tract infection. Animals were orally dosed with 25 mg/kg of mannosides ZFH-4269, prodrug FIM-1233 (FIG. 8B), prodrug FIM-6123 (FIG. 8C) and prodrug 269 in 10% cyclodextrin or 10% cyclodextrin 30 min prior to infecting with UT189.
(§1) The FimH-mannose interaction was further investigated in an effort to develop potential ligand-based antagonists of UTIs. […] The non-reducing Man4 anchors into the mannose-binding pocket while the GlcNAc folds over Thr51 allowing specific interactions with a hydrophobic tyrosine gate. Heptyl mannoside mimics the GlcNAc tail of oligomannose-3 and extends it further to increase interactions outside the binding pocket resulting in high affinity binding (Kd=5 nM). Based on the high affinity of heptyl mannose for FimH, the ability of heptyl mannose to reduce bacterial infection in our mouse model of UTI was tested. First, biofilm formation as a surrogate for IBCs formed in the bladder was evaluated. […] Thus, UPEC strain UTI89 was incubated with heptyl mannose prior to inoculation into the bladders of mice.
Bacteria were grown under type 1 pili-inducing conditions (2×24 h at 37° C. statically in LB). The bacteria were harvested and resuspended to an OD600 of 0.5 in PBS. Eight-week-old C3H/HeN (Harlan) female mice were anesthetized by inhalation of isoflurane and infected via transurethral catheterization with […] of the bacterial suspension, resulting in 1-2×10^7 inoculum. At 6 hpi, mice were sacrificed by cervical dislocation under anesthesia and the bladders were immediately harvested and processed as described below. All animal studies using mice were approved by the Animal Studies Committee of Washington University (Animal Protocol Number 20100002).
Mannoside ZFH-2056 was administered either IP (5 mg/kg) or orally (100 mg/kg) 30 min prior to inoculation with UTI89. To enumerate the bacteria present, mice were sacrificed at 6 hpi and bladders were aseptically removed and homogenized in 1 ml PBS, serially diluted and plated onto LB agar plates. CFU was enumerated after 16 h of growth at 37° C.

[3] = Rat pharmacokinetics, IV and PO; format: in vivo
Procedure: Mannoside compounds FIM-4269, FIM-5240, FIM-5254, FIM-1CJ82 and FIM-1CJ66 (FIG. 3) were evaluated for pharmacokinetics in the rat. Mannosides were dose IV at 3 mg/kg and PO at 10 mg/kg. Urine and plasma were collected at 15 min, 30 min, 1 hour, 2 hours, 4 hours and 8 hours.

FimH [4] = target: T1, FimH (Escherichia coli, UniProt P08191); assay: Hemagglutination inhibition (HAI) assay, guinea pig red blood cells; format: cell-based, E. coli; settings: concentration inhibiting >90% hemagglutination of guinea pig red blood cells
T1 construct: endogenous in cells; host or cells: type 1 piliated uropathogenic E. coli (UPEC)
T1 sequence (P08191 22-300): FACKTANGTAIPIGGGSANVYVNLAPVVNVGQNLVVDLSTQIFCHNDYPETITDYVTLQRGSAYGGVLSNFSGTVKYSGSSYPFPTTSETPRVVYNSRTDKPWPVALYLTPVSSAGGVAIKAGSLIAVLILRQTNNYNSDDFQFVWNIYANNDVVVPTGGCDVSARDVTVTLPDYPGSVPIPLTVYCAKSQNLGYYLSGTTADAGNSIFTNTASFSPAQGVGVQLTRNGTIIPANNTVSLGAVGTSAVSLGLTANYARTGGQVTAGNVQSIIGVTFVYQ
Procedure: FIG. 15 depicts the hemagglutination assay (HA) used to assess the compounds' ability to block FimH mediated binding. The HAI titer quantitatively measure the effect of inhibitors on blocking the FimH-mediated hemagglutination (HA) of guinea pig red blood cell infected with E. coli.
In some embodiments, activity of the compound is measured using hemmagglutination titer of guinea pig red blood cells. Hemagglutination of guinea pig red blood cells by type1 piliated UPEC is dependent upon FimH mannose binding ability and serial dilutions allow a quantitative analysis.
Hemagglutination assays for mannose-sensitive agglutination of guinea pig red blood cells were performed as previously described.

UPEC biofilm formation = assay: Biofilm assay; format: cell-based, Escherichia coli; settings: 1 mM
Procedure: as §1
UTI89 was grown in LB broth in wells of PVC microtiter plates at 23° C. in the presence of individual mannosides at varying concentrations. After 48 h of growth, wells were rinsed with water and stained with crystal violet for quantification as described. For biofilm disruption activity in PVC plates, UTI89 was grown in LB broth in wells of PVC microtiter plates at 23° C. After 24 h of growth, mannoside was added and biofilms were grown for an additional 16 h. Wells were then rinsed, stained with crystal violet and quantified. […]

FimH [5] = target: T1, FimH; assay: Binding affinity to FimH; set-up: species or system E. coli
Procedure: as §1

PBC-1 = assay: Growth curve / MIC in TMP-SMZ, PBC-1; format: cell-based; settings: Escherichia coli; PBC-1, growth curves in TMP-SMZ; read-out: Minimum Inhibition Concentration (MIC)
Procedure: (§2) Mice were IP treated with 6 30 min prior to inoculation with bacteria and compared to a control group of untreated animals. After inoculation with UTI89 or PBC-1, bacterial CFUs were quantified at 6 hpi.
Mannoside ZFH-2056 was added at 100 μM. Growth curves were performed in a 96-well plate at 37° C. with A600 readings taken every 30 min for 8 h.

UTI89 [6] = assay: microbe, parasite or virus in culture; settings: Escherichia coli
[7] = mice, after 3 days of 54 μg/ml TMP and 270 μg/ml SMZ in drinking water
Procedure: as §2
Water was changed daily for 3 days prior to inoculation with UTI89.

UTI89 [8] = assay: UTI89 biofilm formation in urine under flow; format: cell-based, Escherichia coli; settings: 1% in urine under flow
Description: To investigate the potential therapeutic effects of mannosides on CAUTI, we first assessed the inhibitory effects of methyl-a-D-mannopyranoside (methyl mannose), on UTI89 biofilm formation in urine under flow.

## CNC(=O)c1cccc(-c2ccc([C@@H](O)C3OC(CO)C(O)C(O)C3O)c(C)c2)c1 (single isomer, unassigned) [Example 18A]
[1]; samples at 1, 3, 6 and 8 hours
  detectability in urine: detectable in the urine out to 8 hours post-treatment
[1]; within a 6-hour period
  level of concentration in the urine: consistently maintained a high level of concentration in the urine
UTI89 [2]; 25 mg/kg oral in 10% cyclodextrin 30 min prior to infecting with UTI89
  total bacterial CFUs in the bladder: drop in bacterial counts
UTI89 [2]; 50 mg/kg oral 30 min prior to infecting with UTI89, vs DMSO or PBS, listed as 240, 50 mg/kg
  total bacterial CFUs in the bladder: reduced bacterial titers in the bladder relative to DMSO and PBS
UTI89 [2]; 50 mg/kg oral 30 min prior to infecting with UTI89, vs DMSO or PBS, listed as ZFH-5240, 50 mg/kg
  total bacterial CFUs in the bladder: drop in bacterial counts
[3]; IV 3 mg/kg
  time plasma concentration remained above the limit of detection: 2.5 h
[3]; IV 3 mg/kg, listed as FIM-5240, 3 mg/kg
  mean plasma concentration / PK after IV dose: the highest relative to the other 4 mannosides; also recorded: best PK
[3]; PO 10 mg/kg
  pharmacokinetics after PO dose: best pharmacokinetics relative to the other mannosides
  time at which plasma concentration fell below the limit of detection: 2 h
FimH [4]
  HAI Titer EC>90: 0.031 µM

## CCCCCCCO[C@H]1O[C@H](CO)[C@@H](O)[C@H](O)[C@@H]1O [Heptyl mannoside]
UPEC biofilm formation
  UPEC biofilm formation in vitro: inhibited UPEC biofilm formation
UTI89 [2]; UTI89 incubated with 5 mM compound prior to inoculation into bladders, 6 hours post-infection
  virulence in mouse model of UTI: significant attenuation of virulence
FimH [5]
  Kd: 5 nM

## Cc1cc(NS(=O)(=O)c2ccc(N)cc2)no1 [SMZ, Sulfamethoxazole]
PBC-1
  MIC: 1280 µg/mL (≈ 5050 µM)
UTI89 [6]
  MIC: 0.25 µg/mL (≈ 0.987 µM)

## COc1cc(Cc2cnc(N)nc2N)cc(OC)c1OC [TMP, Trimethoprim]
[7]
  TMP concentration in urine: 9.95 ± 4.36 mg/mL
PBC-1
  MIC: 256 µg/mL (≈ 882 µM)
UTI89 [6]
  MIC: 0.05 µg/mL (≈ 0.172 µM)

## CO[C@H]1O[C@H](CO)[C@@H](O)[C@H](O)[C@@H]1O [methyl mannose, methyl-a-D-mannopyranoside]
UTI89 [8]; p=0.0012 vs untreated
  biofilm-adherent cells: significantly reduced
UTI89 [8]; p=0.0022 vs untreated
  biofilm biomass: significantly reduced

From US9957289B2, “Compounds and methods for treating bacterial infections” (Washington University, priority 2013, dated 2018)
